From patent US11660354B2, “Inhibitor-functionalized ultrasmall nanoparticles and methods thereof” (Memorial Sloan Kettering Cancer Center, priority 2016, dated 2023)
Where two headings read alike, the source gives them in different places. Square brackets hold non-standard residues; d marks the D form. Sta = CC(C)C[C@H](N)[C@@H](O)CC(=O)O; Ahx = NCCCCCC(=O)O

How the values were obtained:
PC3 cells = assay: Radiolabeled particle cell binding and internalization, PC3 cells; type: cell-based
Method: (§1) Blocking studies show specific uptake.
(§2) PSMAi-(^64Cu)NOTA-C′ dots and GRP-(^177Lu)DOTA-C′ dots were examined for cell binding with LNCaP and PC3 cells (FIGS. 11A-11C). Cells were incubated with 100,000 CPM of PD10 purified radiolabeled C′ dots. PMPA and bombesin were used for blocking PSMAi and GRP radiolabeled C′ dots. After 3 PBS washes, the membrane surface-bound fraction was removed with 40 mM NaOAc (pH=4.5, 0.9% NaCl, 0.2% BSA), after which the cells were dissolved in NaOH to obtain internalized counts.

LNCaP cells = assay: Radiolabeled particle cell binding and internalization, LNCaP cells; type: cell-based
Method: as §1, §2

TRAMP-C2 cell line = assay: Binding of radiolabeled C′ dots to the TRAMP-C2 cell line; type: cell-based, mouse
Excerpt: The advantages of the TRAMP model are the development of disease that mirrors human pathology in an immune competent mouse, coupled with the formation of LN and bone metastases. Disadvantages are that the biology/physiology of mouse prostate is not the same as the human organ. For example, the mouse prostate is not a single organ, as in human, but has 4 lobes, different from the single organ human prostate. The advantage of the TRAMP model is the ability to image metastatic disease and nodal metastases with PSMA- and GRPr-targeting C′ dots using PET and fluorescence-based multiplexing. Binding studies of PSMAi-(^67Ga)NOTA-C′ dots and GRP-(^177Lu)DOTA-C′ dots to the TRAMP-C2 cell line were examined (FIG. 17). The TRAMP-C2 cell line was derived from TRAMP prostate tumors. Both the PSMAi-(^67Ga)NOTA-C′ dots and GRP-(^177Lu)DOTA-C′ dots bound the TRAMP-C2 cell line. […] This model enables proof-of-concept studies to be conducted for multiplexed detection of nodal metastases using a cocktail of PSMAi-PEG-Cy5.5-C′ dots and GRP-PEG-CW800-C′ dots.

[1] = type: in vitro ADME; conditions: serum
Method: PSMAi-NOTA-C′ dots (21 μmol) were radiolabeled with ^64Cu or ^177Lu (210 pmol) in NH4Ac buffer pH 5.5 at 70° C. for 20 min. The average radiolabeling yields were 98.6% and 99.3% radiochemical purities of 98% and 99.9%. Stabilities of the radiolabeled particle complexes were examined in water, saline, and serum (Table 1).
In the final step, PSMA and GRPr targeted C′ dots can be radiolabeled with ^64Cu and ^67Ga at various concentrations (˜0.3-300 nmol) in acetate buffer (pH 5.5) for 30 min and at 70° C. to obtain PSMAi-(^64Cu)NOTA-C′ dots and GRP-(^67Ga)DOTA-C′ dots. For ^89Zr labeling, as-synthesized PSMAi-DFO-C′ dot can be incubated with ^89Zr-oxalate at 37° C. for 30 min (pH 7-8). Radiolabeled PSMA-targeting C′ dots and GRPr-targeting C′ dots can be purified using PD-10 (G-25) size exclusion chromatography. For radiolabeling experiments, specific radiolabeling parameters can be determined for optimal radiolabeling efficiencies and high specific activities. Labeling can begin with the conditions shown to produce the highest specific activity. Quality control includes ITLC, HPLC, and cell-based receptor binding bioassays. Stability of radiolabeled C′ dots can be determined in H2O, PBS at 25° C. and mouse and human serum at 37° C.

[2] = tested on: PC lesion and metastatic LNs; assay: Clinical PET with ^68Ga-RM2 and ^68Ga-PSMA-11 in prostate cancer patients; type: in vivo; conditions: patient with biochemical recurrence of PC
Excerpt: FIGS. 20A-20B show a patient with biochemical recurrence of PC imaged with PSMA ligand ^68Ga-PSMA-11 and GRPr ligand ^68Ga-RM2. ^68Ga-PSMA-11 scan acquired 4 weeks after the ^68Ga-RM2 scan. Retroperitoneal LN metastases are better visualized on the GRPr scan than on the PSMA scan.

Molecule	cell binding, uptake and internalization (PC3 cells)	binding in the presence of bombesin (PC3 cells; blocking with bombesin)	cell binding, uptake and internalization (LNCaP cells)	binding to TRAMP-C2 cell line with RM2 peptide (TRAMP-C2 cell line; addition of an excess of GRPr targeting RM2 peptide)	binding to TRAMP-C2 cell line (TRAMP-C2 cell line; alone)	percent radiolabeled C′ dot stability ([1]; human, 1 h) [%]	percent radiolabeled C′ dot stability ([1]; human, 4 h) [%]	percent radiolabeled C′ dot stability ([1]; human, 24 h) [%]	percent radiolabeled C′ dot stability ([1]; mouse, 1 h) [%]	percent radiolabeled C′ dot stability ([1]; mouse, 4 h) [%]	percent radiolabeled C′ dot stability ([1]; mouse, 24 h) [%]	normal organ uptake [2]
GRP-(^177Lu)DOTA-C′ dots: GRP antagonist-DOTA peptide-functionalized C′ dots radiolabeled with ^177Lu ({Ac-Cys-Ahx-Ahx-K(DOTA)-4‑amino‑1‑carboxymethyl‑piperidine}-HQWAVGH[Sta]L-NH2; also: Cys thiol bound to maleimide-PEG-silane on silica nanoparticle, DOTA labelled with 177Lu)	bound PC3 cells, but were not efficiently internalized	blocked	low levels of binding	significantly reduced	bound	99.9	99.9	99.8	99.9	99.8	98.6	
O=C(O)CCc1ccc(O)c(CN(CCN(CC(=O)O)Cc2cc(CCC(=O)NCCCCCC(=O)NCCCC[C@H](NC(=O)N[C@@H](CCC(=O)O)C(=O)O)C(=O)O)ccc2O)CC(=O)O)c1 (68Ga complex, metal not drawn) [PSMA-11]												very high RES and renal uptake
